Test results from article PMC13371181, “A paracrine-to-autocrine shunt of GREM1 fuels colorectal cancer metastasis via ACVR1C” (Molecular Cancer, 2026).
“Also recorded” adds a separate entry of the source.

Key:
[1] = system: SW480 cells; experiment: GREM1 expression in SW480 cells after rhGREM1, RT–qPCR; type: cell-based, human; conditions: n = 3 biological replicates
Description: Total RNA was extracted using Trizol reagent (Invitrogen, 15596026). According to the instructions, cDNA was generated using the PrimeScript RT reagent Kit with gDNA Eraser (Accurate Biology, AG11706). The SYBR Green Premix Pro Taq HS qPCR Kit (Accurate Biology, AG11701) was then used to quantify mRNA expression according to the manufacturer’s instructions. All results were calculated using the 2^−ΔΔCt method. Primers used in the study are listed in Supplementary Table 1.

[2] = system: HCT116 and SW480 cells; experiment: EMT markers by immunoblotting and RT–qPCR; type: cell-based, human; conditions: GREM1-CM + GREM1 BAb, + SB505124 (1 µM) or + different concentrations of sb4 (sb4: immunoblotting)
Description: (§1) To investigate the effect of secreted GREM1 on CRC cells, an in vitro GREM1 secretion system was established using HEK293 cells. Stably GREM1-expressing cells (pcDNA3.1-GREM1) and empty-vector transfected cells (pcDNA3.1) were cultured in DMEM/F12 medium with 10% FBS until 40% confluence. After complete removal of the normal culture medium, HEK293-GREM1 and HEK293-Vec cells were continuously cultured in DMEM/F12 medium without FBS for 5 days before medium collection. GREM1 or Vector conditioned medium (GREM1-CM/Vec-CM) was then centrifuged at 1000 rpm for 30 min and the supernatant was collected for further study.
(§2) Protein was extracted from the cells with RIPA buffer (Beyotime, P0018) or NP40 lysis buffer (Beyotime, P0013F) and separated by SDS-PAGE, and transferred to polyvinylidene difluoride membranes. […] Band intensity was quantified using Fiji (ImageJ) by grayscale analysis.
Total RNA was extracted using Trizol reagent (Invitrogen, 15596026). […] The SYBR Green Premix Pro Taq HS qPCR Kit (Accurate Biology, AG11701) was then used to quantify mRNA expression according to the manufacturer’s instructions. All results were calculated using the 2^−ΔΔCt method. […]

[3] = system: HCT116-luc cells; experiment: Cecum-to-liver metastasis model, GREM1-CM-pre-treated HCT116-luc in NOG mice; type: in vivo, human cells in NOG mice; conditions: cecum wall, SB505124 10 mg/kg i.p. every other day, IVIS, n = 5 mice per group
Text: To determine the role of the ACVR1C–SMAD2/3 axis in GREM1-mediated EMT in vivo, we harnessed HCT116 cells carrying a luciferase reporter (HCT116-luc), which stably express either shACVR1C or a scramble shRNA. These cells were pretreated with GREM1-CM prior to their subcutaneous transplantation into nude mice. […] These findings were further corroborated by IF staining of EMT markers, including E-CAD and SNAIL (Figs. 5E–G). As a complementary pharmacological approach, we inhibited ACVR1C-mediated SMAD2/3 activation using SB505124. […] Importantly, to investigate the impact of the ACVR1C–SMAD2/3 axis on metastasis, we injected GREM1-CM-pre-treated HCT116-luc cells, stably expressing either shACVR1C or scramble shRNA, into the tail vein of nude mice. […]
Figure S8. […] E-G, Representative IF images (E) and quantification (F, G) of E-CAD (green), SNAIL (red), and DAPI (blue) staining in tumors from the indicated groups. […] H, I, Representative IVIS images (H) and quantification (I) of NOG mice that were injected with HCT116-luc cells in the cecum wall and treated with either SB505124 or vehicle via abdominal injection. Liver metastases were imaged and quantified using the IVIS Lumina Imaging System (n = 5 mice per group). […] P values were calculated using one-way ANOVA with Bonferroni multiple-comparison test (B–D, F, and G) or two-tailed Student’s t-test (I).

[4] = system: ACVR1C–SMAD2/3 pathway in HCT116 and SW480 cells; experiment: Immunoblotting p-SMAD2/3 (ACVR1C pathway); type: cell-based, human; conditions: HCT116 and SW480 cells, immunoblotting; GREM1-CM + GREM1 BAb or + SB505124 (1 µM)
Description: as §1, §2

Cc1cccc(-c2[nH]c(C(C)(C)C)nc2-c2ccc3c(c2)OCO3)n1 [SB505124]
rhGREM1-induced GREM1 expression, effect of inhibitor [1]: completely reversed the effect of rhGREM1
GREM1-CM-induced EMT, effect of treatment [2]: significantly blocked GREM1-CM–induced p-SMAD2/3 activation and EMT
liver metastasis [3]: significant reduction in liver metastasis; also recorded: markedly attenuated the metastatic phenotype induced by GREM1-CM
GREM1-CM-induced p-SMAD2/3, effect of inhibitor [4]: significantly blocked GREM1-CM–induced p-SMAD2/3 activation and EMT
